According to PMC6934184, “Selective DNA-PKcs inhibition extends the therapeutic index of localized radiotherapy and chemotherapy” (The Journal of Clinical Investigation, 2019):

Biological target: T1, CSK (Homo sapiens, UniProt P41240)
T1 construct: purchased Thermo Fisher Scientific (Life Technologies) SelectScreen
Assay: SelectScreen Z'LYTE
Type: biochemical
Procedure, shortened: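 Percent values come from Thermo SelectScreen profiling of NU5455, combining activity and binding assays. CSF1R was run in Z'LYTE format at Km app ATP, and CAMK1 in Adapta format with ATP listed at 10.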

T1 sequence (P41240 whole entry): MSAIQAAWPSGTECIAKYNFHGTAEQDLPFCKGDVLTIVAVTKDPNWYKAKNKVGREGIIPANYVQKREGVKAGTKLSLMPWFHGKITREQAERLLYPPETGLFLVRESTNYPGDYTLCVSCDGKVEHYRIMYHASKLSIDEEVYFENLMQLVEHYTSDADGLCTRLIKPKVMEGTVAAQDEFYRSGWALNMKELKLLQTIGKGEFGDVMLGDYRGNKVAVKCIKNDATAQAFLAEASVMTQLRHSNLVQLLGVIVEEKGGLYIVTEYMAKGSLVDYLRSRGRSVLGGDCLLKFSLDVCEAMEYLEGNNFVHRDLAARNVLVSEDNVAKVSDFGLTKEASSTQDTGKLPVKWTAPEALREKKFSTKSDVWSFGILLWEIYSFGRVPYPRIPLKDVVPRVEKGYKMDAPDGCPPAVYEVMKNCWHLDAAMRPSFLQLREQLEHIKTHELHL

## CN(C(=O)CN1CCOCC1)c1ccc2sc3c(-c4cccc5c(=O)cc(N6CC7CCC(C6)O7)oc45)cccc3c2c1 [NU5455]
  inhibition at 1 µM: 7.6%
